Reference: patent US20100319073A1, “GDE Compositions and Methods” (The Johns Hopkins University, priority 2005, published 2010)

Tested on: clone 45.1 (GDE2)
Test: Reverse Northern blot of ventral spinal cord explants grown with or without retinol (differential subtraction screen)
Assay type: cell-based, chick
Details: explants exposed to retinol, compared with GAPDH
Protocol: Ventral neural explants were dissected from brachial level HH St17 chick embryos and cultured as described previously for 18 hours (1). The screen was designed to maximize isolation of genes responsive to motor neuron-derived retinoids however genes responsive to paraxial mesoderm-derived retinoids would also have been included. RNA from 100 explants was isolated using Trizol (GIBCO-BRL). cDNAs were generated and amplified using the Marathon cDNA PCR Amplification kit (Stratagene) and the subtraction procedure carried out using the Stratagene PCR Select Suppression kit. Reverse Northern blot analysis was performed as described in the latter kit.
Spinal motor neuron generation in the chick requires the integration of three different extrinsic signals: sonic hedgehog, fibroblast growth factors, and retinoic acid (RA) (2, 3). All three signaling pathways have been implicated in initial dorsal-ventral patterning of progenitor domains in the spinal cord (FIG. 1A). However, RA signaling is also necessary for the induction of Oligodendrocyte transcription factor 2 (Olig2) in progenitors, and their subsequent differentiation into postmitotic motor neurons (FIG. 1A) (2). […]

**Q.** With `CC1=C(/C=C/C(C)=C/C=C/C(C)=C/CO)C(C)(C)CCC1` [retinol] as the compound, how does the “increase in expression of clone 45.1” value read?
**A.** approximately 50 fold
